Assays:
[1] = Dye concentration in saturated acetone solution at room temperature; assay type: physicochemical; details: 72 hours at RT, 0.45 micron PTFE filtered, absorbance at 535 nm
Procedure: Examples 4-7 were prepared by placing 60-100 mg of each of the compounds of Examples 1-3 and 6-methoxy-14H-anthra(2,1,9-mna)thioxanthene-14-one (described by Carlini et al.) in a vial with 5.0 ml acetone. […] Each vial was hand shaken and the solution was filtered using a 0.45 micron polytetrafluoroethylene (PTFE) filter commercially available from VWR Scientific Products, West Chester, Pa. under the trade designation “Acrodisc 13CR PTFE”.
The amount of fluorescent dye in the saturated acetone solution was determined by measuring the major dye absorption band at 535 nm using a UV-Vis Spectrophotometer commercially available from Shimadzu Scientific Instruments, Inc., Columbia, Md. under the trade designation “Shimadzu model UV-2401PC”. Dye concentrations were calculated by measuring the absorbance of the saturated acetone solution, and then diluting that solution until absorbance of the resulting solution was below 3. The dyes were assumed to have equal absorbance per mole. Using the dilution and an absorbance coefficient of 16,100 A/mol/L (coefficient obtained in acetone for the dye of Example 3) and assuming a Beer's Law relationship, the concentration of dye in each saturated solution was calculated and is set out in TABLE I

[2] = Daytime color of Paraloid B66 dye coating on retroreflective sheeting; assay type: physicochemical; details: for YF (fluorescence luminance factor) / YT (total luminance factor) / x (daytime chromaticity) / y (daytime chromaticity): 0.10 parts dye in 64.8 parts Dowanol DPMA and 38.2 parts Paraloid B66, coated on Scotchlite 3970 with #16 wire wound bar, dried
Procedure: (§1) The daytime color of each article was measured using a Labsphere BFC-450 Bispectral Colorimeter commercially available from Labsphere, North Sutton, N.H. The daytime chromaticity (x,y), total luminance factor (YT), and fluorescence luminance factor (YF; which is a measure of the fluorescent properties of the article) calculated for the CIE D65 and the CIE 1931 observer are provided in TABLE II
Examples 19-21 were prepared by independently stirring 0.10 parts of the dyes of Examples 1 and 3 and 6-methoxy-14H-anthra(2,1,9-mna)thioxanthene-14-one in a clear vehicle solution of 64.8 parts Dowanol DPMA and 38.2 parts Paraloid B66.
The fluorescent dye solutions were coated on Scotchlite 3970 reflective sheeting using a #16 wire wound bar. The coating was air dried for 5 minutes and then dried in a 120° C. oven for 45 minutes. Color values were measured as described in Examples 8-10 and the results set out in TABLE V.

[3] = Daytime color of vinyl film with dye laminated to retroreflective sheeting; assay type: physicochemical; details: 0.18 g dye in 65 g GEON 178 / Elvacite 2013 mixture, 0.04 mm vinyl film on Scotchlite 3970
Procedure: as §1
Examples 22-23 were prepared by independently stirring 0.18 g of the dye of Examples 1 and 3 into 65 g of a mixture composed of 42 wt.-% DIBK, xylol, and mineral spirit (1.7:2.3:1), 44 wt.-% of a polyvinyl chloride dispersion commercially available from PolyOne, Cleveland, Ohio under the trade designation “GEON 178” and 14 wt.-% of a polyacrylate commercially available from Ineos Acrylics Inc., Cordova, Tenn. under the trade designation “Elvacite 2013”. Each mixture was allowed to stand at room temperature for one hour prior to knife coating onto a pre-sized paper substrate. Each coated substrate was placed in a 150° F. (66° C.) oven for 1.5 minutes, followed by a 300° F. (149° C.) oven for 1.0 minute and a 400° F. (204° C.) oven for 0.75 minute, resulting in a 0.04 mm thick fluorescent colored vinyl film.
The resultant films were laminated to Scotchlite 3970 reflective sheeting on aluminum panels as described in Examples 8-10. Color values were measured as described in Examples 8-10 and the results set out in TABLE VI.

[4] = Daytime color of polyurethane film with dye laminated to retroreflective sheeting; assay type: physicochemical; details: dye 0.2 wt.-% in aliphatic polyester polyurethane PN03.214, 0.1 mm film on Scotchlite 3970
Procedure: as §1
Examples 24-27 were prepared as described in Examples 8-10, except that the dyes of Examples 1, 3, 6-(2-hydroxy-ethoxy)-14H-anthra(2,1,9-mna)thioxanthene-14-one (described by Carlini et al.) and 6-methoxy-14H-anthra(2,1,9-mna)thioxanthene-14-one were independently used at 0.2 wt.-% loading in an aliphatic polyester polyurethane resin commercially available from Huntsman Polyurethanes, West Deptford, N.J., USA under the trade designation “PN03.214”. The extrusion conditions for the polyurethane were 154-191° C. and the resultant film thickness was 0.1 mm.
The resultant films were laminated to Scotchlite 3970 reflective sheeting on aluminum panels as described in Examples 8-10. Color values were measured as described in Examples 8-10 and the results set out in TABLE VII.

[5] = Daytime color of polycarbonate sheet with dye laminated to retroreflective sheeting (Labsphere BFC-450 Bispectral Colorimeter); assay type: physicochemical; details: 0.2% dye in polycarbonate FCR-2407, 0.1 mm sheet on Scotchlite 3970; CIE D65, CIE 1931 observer
Procedure: Examples 8-10 were prepared with the compounds of Examples 1 and 2 and 6-methoxy-14H-anthra(2,1,9-mna)thioxanthene-14-one at a 0.2% loading in polycarbonate FCR-2407. Extrusion conditions for the polycarbonate were 260-304° C. using a single screw extruder. Optically transparent pressure sensitive adhesive with a liner on both sides of the adhesive was laminated to the 0.1 mm thick sheet of polycarbonate by removing one of the liners from the adhesive and then applying the exposed adhesive to the polycarbonate sheet with two passes of a roller using hand pressure.
The remaining liner was removed from the adhesive and the polycarbonate sheet construction was laminated to retroreflective sheeting commercially available from 3M under the trade designation “Scotchlite Diamond Grade LDP Reflective Sheeting Series 3970” (Scotchlite 3970) with two passes of a roller using hand pressure. The Scotchlite 3970 reflective sheeting had previously been laminated to a 7 cm wide by 28 cm long aluminum panel (6061T6 alloy with etch and desmut surface from Q Panel Company, Cleveland, Ohio) with two passes of a roller with hand pressure.
as §1

[6] = Daytime color and visual inspection of PMMA film with dye laminated to retroreflective sheeting; assay type: physicochemical; details: for visual inspection of film for undissolved dye: extruded PMMA CP923 film 0.1 mm, 6-methoxy dye at 1 wt.-%, dyes of Examples 1-2 at up to 1.27 wt-%
Procedure: as §1
Examples 11-16 were prepared with the compounds of Examples 1-2 and 6-methoxy-14H-anthra(2,1,9-mna)thioxanthene-14-one in polymethylmethacrylate (PMMA) resin at the wt.-% of dye shown in TABLE III. The samples were prepared by dry blending the dye with a medium impact modified grade PMMA resin commercially available from Ineos Acrylics Inc., Cordova, Tenn. under the trade designation “CP923”. Films of 0.1 mm thickness were extruded through a single screw extruder with three heating zones set at 249° C. to 260° C. […] Examples 11 and 12 and Examples 13 and 14 had equal molar loadings of dye.
The resultant films were laminated to Scotchlite 3970 reflective sheeting on aluminum panels as described in Examples 8-10. Color values were measured as described in Examples 8-10 and the results set out in TABLE III.

[7] = Daytime color of copolyester film with dye laminated to retroreflective sheeting; assay type: physicochemical; details: dye 0.2 wt.-% in copolyester resin, 0.1 mm film on Scotchlite 3970
Procedure: as §1
Examples 17-18 were prepared as described in Examples 8-10, except that the dyes of Examples 1 and 2 at a 0.2 wt.-% loading were independently incorporated into a copolyester resin. The copolyester resin was prepared using terephthalic and isophthalic acid in an 80/20 ratio and ethylene glycol in the conventional manner and analogous to the production of polyethylene terephthalate according to the method described in Macromolecular Syntheses, A Periodic Publication of Methods for the Preparation of Macromolecules, Collective Volume I, 1977, J. A. Moore, Editor, (John Wiley & Sons, New York; 1978);p. 17-21. The extrusion conditions for the copolyester were 254-260° C. using a single screw extruder and the resultant film thickness was 0.1 mm.
The resultant films were laminated to Scotchlite 3970 reflective sheeting on aluminum panels as described in Examples 8-10. Color values were measured as described in Examples 8-10 and the results set out in TABLE IV.

[8] = dye 0.2 wt-% in PMMA CP923, 0.1 mm film on Scotchlite 3970
[9] = dye 0.3 wt-% in PMMA CP923, 0.1 mm film on Scotchlite 3970
[10] = dye 1.0 wt-% in PMMA CP923, 0.1 mm film on Scotchlite 3970

Compound | Dye Concentration in Acetone at RT [1] [mg/mL] | YF (fluorescence luminance factor) [2] | YT (total luminance factor) [2] | x (daytime chromaticity) [2] | y (daytime chromaticity) [2] | X (daytime chromaticity) [4] | YF (fluorescence luminance factor) [4] | YT (total luminance factor) [4] | y (daytime chromaticity) [4] | YF (fluorescence luminance factor) [5] | YT (total luminance factor) [5] | x (daytime chromaticity) [5] | y (daytime chromaticity) [5] | visual inspection of film for undissolved dye [6] | also measured
CC(C)CC(CC(C)C)Oc1cc2c3ccccc3c(=O)c3ccc4c5ccccc5sc1c4c32 [Example 3, 6-(1-Isobutyl-3-methylbutoxy)-14H-anthra[2,1,9-mna]thioxanthene-14-one] | 2.98 | 17.05 | 33.17 | 0.4971 | 0.3113 | 0.5970 | 11.62 | 17.66 | 0.2886 | – | – | – | – | – | appearance of coated article ([2]; dye in Paraloid B66 coating on Scotchlite 3970): bright fluorescent pink appearance; Y (daytime chromaticity) [3]: 0.2609; YF (fluorescence luminance factor) [3]: 12.92; YT (total luminance factor) [3]: 24.21; x (daytime chromaticity) [3]: 0.4952
CCCCC(CC)COc1cc2c3ccccc3c(=O)c3ccc4c5ccccc5sc1c4c32 (stereo not shown) [Example 2, 6-[(2-Ethylhexyl)oxy]-14H-anthra[2,1,9-mna]thioxanthene-14-one] | 0.96 | – | – | – | – | – | – | – | – | 16.6 | 32.05 | 0.5336 | 0.2979 | uniform appearance with no undissolved dye seen | X (daytime chromaticity) [6, 8]: 0.6064; YF (fluorescence luminance factor) [6, 8]: 14.69; YT (total luminance factor) [6, 8]: 31.13; y (daytime chromaticity) [6, 8]: 0.3113; YF (fluorescence luminance factor) [7]: 12.77; YT (total luminance factor) [7]: 19.91; x (daytime chromaticity) [7]: 0.5627; y (daytime chromaticity) [7]: 0.2785; melting point: 175 to 177 °C
O=c1c2ccccc2c2cc(OCCO)c3sc4ccccc4c4ccc1c2c34 [6-(2-hydroxy-ethoxy)-14H-anthra(2,1,9-mna)thioxanthene-14-one, reference compound] | – | – | – | – | – | 0.6000 | 10.09 | 14.71 | 0.2756 | – | – | – | – | – | –
COc1cc2c3ccccc3c(=O)c3ccc4c5ccccc5sc1c4c32 [6-methoxy-14H-anthra(2,1,9-mna)thioxanthene-14-one, reference compound] | 0.06 | 1.12 | 17.05 | 0.3977 | 0.3225 | 0.5989 | 9.69 | 14.81 | 0.2780 | 16.15 | 28.24 | 0.6163 | 0.3025 | particles of dye in the film | X (daytime chromaticity) [6, 9]: 0.6072; YF (fluorescence luminance factor) [6, 9]: 11.64; YT (total luminance factor) [6, 9]: 17.02; y (daytime chromaticity) [6, 9]: 0.3117; X (daytime chromaticity) [6, 10]: 0.5723; YF (fluorescence luminance factor) [6, 10]: 3.67; YT (total luminance factor) [6, 10]: 5.28; y (daytime chromaticity) [6, 10]: 0.3064

— US6841236B2, “Articles containing thioxanthone dyes” (3M Innovative Properties Co., priority 2001, dated 2005)
